In ChEMBL document CHEMBL5038591, “Identification of a Novel TAR RNA-Binding Protein 2 Modulator with Potential Therapeutic Activity against Hepatocellular Carcinoma” (J Med Chem, 2021):
Activity calls are given as the source filed them. The calls are words filed in the database; no cut-off is given here.

Key:
[1] = system: HeLa; assay: Antiproliferative activity against human HeLa cells assessed as increase in miR-21 biogenesis level measured after 24 hrs by luciferase assay; assay type: functional, cell-based
[2] = system: SK-HEP1; assay: Antiproliferative activity against human SK-HEP1 cells assessed as increase in miR-21-5p level at 20 uM by qRT-PCR analysis; assay type: functional, cell-based
[3] = system: SK-HEP1; assay: Antiproliferative activity against human SK-HEP1 cells assessed as increase in miR-26a-5p level at 20 uM by qRT-PCR analysis; assay type: functional, cell-based
[4] = system: Huh-7; assay: Antiproliferative activity against human Huh-7 cells incubated for 24 hrs by alamar blue assay; settings: Huh-7, 24 h
[5] = system: MDA-MB-231; assay: Antiproliferative activity against human MDA-MB-231 cells incubated for 24 hrs by alamar blue assay; settings: MDA-MB-231, 24 h
[6] = system: Huh-7; assay: Inhibition of colony formation in human Huh-7 cells at 30 uM incubated for 14 days by crystal violet staining based assay; assay type: functional, cell-based; settings: time 14.0 day
[7] = system: MDA-MB-231; assay: Inhibition of colony formation in human MDA-MB-231 cells at 30 uM incubated for 14 days by crystal violet staining based assay; assay type: functional, cell-based; settings: time 14.0 day
[8] = system: SK-HEP1; assay: Induction of apoptosis in human SK-HEP1 cells at 30 uM incubated for 24 hrs by Annexin V-FITC/PI staining based flow cytometry; assay type: functional, cell-based
[9] = system: SK-HEP1; assay: Inhibition of cell migration in human SK-HEP1 cells at 30 uM incubated for 12 hrs by crystal violet staining based transwell assay; assay type: functional
[10] = system: MHCC97; assay: Inhibition of cell migration in human MHCC97H cells at 30 uM incubated for 12 hrs by crystal violet staining based transwell assay; assay type: functional
[11] = system: SK-HEP1; assay: Inhibition of cell invasion in human SK-HEP1 cells at 30 uM incubated for 12 hrs by crystal violet staining based transwell assay; assay type: functional
[12] = system: SK-HEP1; assay: Inhibition of epithelial-mesenchymal transition in human SK-HEP1 cells assessed as change in E-cadherin expression at 10 to 50 uM incubated for 24 hrs by Western blot analysis; assay type: functional, cell-based; settings: dose 10-50 µM
[13] = system: SK-HEP1; assay: Inhibition of epithelial-mesenchymal transition in human SK-HEP1 cells assessed as change in vimentin expression at 10 to 50 uM incubated for 24 hrs by Western blot analysis; assay type: functional, cell-based; settings: dose 10-50 µM
[14] = system: MHCC97; assay: Antitumor activity in human MHCC97 cells xenografted in SCID mouse assessed as suppression of tumor growth at 20 mg/kg, ip administered once every 3 day for 30 days by bioluminescence analysis; assay type: functional, organism-based; settings: time 30.0 day
[15] = system: MHCC97; assay: Antimetastatic activity against human MHCC97 cells xenografted in SCID mouse assessed as decrease in liver metastasis at 20 mg/kg, ip administered once every 3 days and measured after 10 days; assay type: functional, organism-based; settings: time 10.0 day
[16] = system: MHCC97; assay: Antimetastatic activity against human MHCC97 cells xenografted in SCID mouse assessed as decrease in liver metastasis at 40 mg/kg, ip administered once every 3 days and measured after 10 days; assay type: functional, organism-based; settings: time 10.0 day
[17] = system: MHCC97; assay: Antitumor activity in human MHCC97 cells xenografted in SCID mouse assessed as reduction in infiltration of inflammatory cells in left outer lobe of liver at 40 mg/kg, ip administered once every 3 days measured after 30 days by H and E staining based immunohistochemical analysis; assay type: functional, organism-based; settings: time 30.0 day
[18] = system: MHCC97; assay: Antitumor activity in human MHCC97 cells xenografted in SCID mouse assessed as reduction in infiltration of inflammatory cells in left middle lobe of liver at 40 mg/kg, ip measured after 30 days by H and E staining based immunohistochemical analysis; assay type: functional, organism-based; settings: time 30.0 day
[19] = system: SK-HEP1; assay: Effect on human SK-HEP1 cells assessed as increase in miR-146a-5p level by qRT-PCR analysis; assay type: functional, cell-based
[20] = target: MAP kinase p38 (Homo sapiens) (UniProt O15264+Q15759+Q16539+P53778); assay: Inhibition of p38 phosphorylation in human SK-HEP1 cells at 30 uM by Western blot analysis; assay type: cell-based
[21] = target: T1, Signal transducer and activator of transcription 1-alpha/beta (Homo sapiens) (UniProt P42224); assay: Inhibition of STAT1 phosphorylation in human SK-HEP1 cells at 30 uM by Western blot analysis; assay type: cell-based
T1 sequence (whole entry): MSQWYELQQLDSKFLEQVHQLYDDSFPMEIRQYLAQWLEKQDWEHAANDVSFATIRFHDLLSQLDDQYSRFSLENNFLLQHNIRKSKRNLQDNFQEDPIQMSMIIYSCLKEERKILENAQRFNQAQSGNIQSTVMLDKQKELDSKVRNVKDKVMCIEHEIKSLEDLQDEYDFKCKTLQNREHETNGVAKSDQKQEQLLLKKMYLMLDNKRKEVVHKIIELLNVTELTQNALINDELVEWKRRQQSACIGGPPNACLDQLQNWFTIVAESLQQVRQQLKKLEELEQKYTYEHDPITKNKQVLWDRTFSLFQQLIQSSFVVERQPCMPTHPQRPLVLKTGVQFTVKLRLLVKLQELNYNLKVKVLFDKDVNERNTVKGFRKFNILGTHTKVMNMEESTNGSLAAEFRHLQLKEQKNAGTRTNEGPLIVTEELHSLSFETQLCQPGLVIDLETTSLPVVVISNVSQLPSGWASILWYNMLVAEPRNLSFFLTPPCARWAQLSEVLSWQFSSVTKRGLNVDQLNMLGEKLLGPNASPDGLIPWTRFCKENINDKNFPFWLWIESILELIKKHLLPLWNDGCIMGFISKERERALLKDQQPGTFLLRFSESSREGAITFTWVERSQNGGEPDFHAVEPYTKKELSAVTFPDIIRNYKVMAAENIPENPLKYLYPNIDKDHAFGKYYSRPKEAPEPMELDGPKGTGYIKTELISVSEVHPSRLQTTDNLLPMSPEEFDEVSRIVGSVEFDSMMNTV

[22] = system: SK-HEP1; assay: Inhibition of cell migration in human SK-HEP1 cells overexpressing TRBP at 20 uM measured after 12 hrs using crystal violet staining inverted microscope based transwell assay; assay type: functional
[23] = system: SK-HEP1; assay: Antiproliferative activity against human SK-HEP1 cells assessed as increase in miR-122-5p level at 20 uM by qRT-PCR analysis; assay type: functional, cell-based
[24] = system: SK-HEP1; assay: Antiproliferative activity against human SK-HEP1 cells assessed as increase in miR-10a-5p level at 20 uM by qRT-PCR analysis; assay type: functional, cell-based
[25] = system: MHCC97; assay: Antiproliferative activity against human MHCC97 cells at 25 uM incubated for 24 hrs by alamar blue assay; assay type: functional, cell-based
[26] = system: HepG2; assay: Antiproliferative activity against human HepG2 cells at 25 uM incubated for 24 hrs by alamar blue assay; assay type: functional, cell-based
[27] = system: HeLa; assay: Antiproliferative activity against human HeLa cells at 25 uM incubated for 24 hrs by alamar blue assay; assay type: functional, cell-based
[28] = system: MDA-MB-231; assay: Antiproliferative activity against human MDA-MB-231 cells at 25 uM incubated for 24 hrs by alamar blue assay; assay type: functional, cell-based
[29] = system: HCT-116; assay: Antiproliferative activity against human HCT-116 cells at 25 uM incubated for 24 hrs by alamar blue assay; assay type: functional, cell-based
[30] = system: MHCC97; assay: Antitumor activity against human MHCC97 cells xenografted in SCID mouse assessed as decrease in tumor size at 40 mg/kg, ip administered once every 3 days and measured after 10 days; assay type: functional, organism-based; settings: time 10.0 day
[31] = system: SK-HEP1; assay: Effect on AGO2 protein expression in human SK-HEP1 cells at 30 uM after 24 hrs by immunoblot analysis; assay type: functional, cell-based

COc1cc2c(c(O)c1OC)-c1c(cc3c(c1OC)OCO3)C[C@H](C)[C@H](C)C2
IC50 [1]: 17.2 µM | Activity [2]: Active | Activity [3]: Active | IC50 [4]: 32.2 µM | IC50 [5]: 56.6 µM | inhibition [6]: Active | inhibition [7]: Active | Activity [8]: inactive | inhibition [9]: Active | inhibition [10]: Active | inhibition [11]: Active | inhibition [12]: inactive | inhibition [13]: inactive | Activity [14]: Active | Activity [15]: inactive | Activity [16]: Active | Activity [17]: Active | Activity [18]: Active | Activity [19]: Dose-Dependent Effect | inhibition [20]: inactive | inhibition [21]: inactive | inhibition [22]: Active | Activity [23]: Active | Activity [24]: inactive | Activity [25]: Active | Activity [26]: Active | Activity [27]: Active | Activity [28]: inactive | Activity [29]: inactive | Activity [30]: Active | Activity [31]: inactive
